Results on six compounds are retold here after PMC9782297, “Integracides: Tetracyclic Triterpenoids from Fusarium sp.—Their 5-Lipoxygenase Inhibitory Potential and Structure–Activity Relation Using In Vitro and Molecular Docking Studies” (Life, 2022).

This experiment concerns the target 5-LOX (5-lipoxygenase). As to the kind of experiment: 5-Lipoxygenase inhibitory assay. Format: biochemical. As to conditions: conc. 0.001, 0.01, 1.0 and 10 µM; zileuton positive control; read-out: 5-LOX inhibition IC50. The method, then: Optical rotation was estimated using a 341LC Perkin-Elmer polarimeter (Perkin-Elmer, Waltham, MA, USA). UV and IR were assessed employing Shimadzu UV/VIS 1601 and IR-400 spectrophotometers (Shimadzu, Kyoto, Japan), respectively. Orbitrap LTQ (ThermoFinnigan, Bremen, Germany) and 850 INOVA BRUKER (Bruker BioSpin, Billerica, MA, USA) were utilized for HRESIMS and NMR measuring. The chromatographic investigation was achieved utilizing SiO260/Sephadex LH-20/RP-18, in addition to a 6-mL RP-18 LiChrolut extraction tube (Merck/Darmstadt/Germany).
IC50s were estimated by regression analysis (GraphPad-InStat 3, GraphPad Software, San Diego, CA, USA). The % 5-LOX inhibition of and IC50s are listed as mean-values ±SD. Statistical significance was analyzed among the samples by one-way-ANOVA and subsequently by Tukey–Kramer test (p < 0.005).

Structures are written as SMILES.

One may read the IC50 as the concentration needed to halve the response being measured. In the case of `C=C(CCC(C)C1CC=C2C3=C(C(O)C(OC(C)=O)C21C)C1(C)CC(O)C(OC(=O)c2ccc(O)cc2)C(C)(C)C1CC3)C(C)C` (stereo not drawn) [Compound 6, integracide J], the IC50 was 2010 nM.

Regarding `C=C(CC[C@@H](C)[C@H]1CC=C2C3=C([C@@H](O)[C@H](OC(C)=O)[C@@]21C)[C@@]1(C)C[C@@H](O)[C@H](O)C(C)(C)[C@@H]1CC3)C(C)C` [Compound 2, integracide B], the IC50 is 3970 nM.

In the case of `C=C(CCC(C)C1CC=C2C3=C(C(O)C(OC(C)=O)C21C)C1(C)CC(O)C(OC(=O)CCCCCCCCCO)C(C)(C)C1CC3)C(C)C` (stereo not drawn) [Compound 4, integracide G], the IC50 came out at 1180 nM.

Consider `C=C(CCC(C)C1CC=C2C3=C(C(O)C(OC(C)=O)C21C)C1(C)CC(OC(C)=O)C(OC(C)=O)C(C)(C)C1CC3)C(C)C` (stereo not drawn) [Compound 5, integracide H], for which the IC50 was 1460 nM.

For `C=C(CCC(C)C1(O)CCC2C3=C(C(O)C(OC(C)=O)C21C)C1(C)CC(O)C(OC(C)=O)C(C)(C)C1CC3)C(C)C` (stereo not drawn) [Compound 1, integracide L], the IC50 was 3450 nM.

As to `C=C(CCC(C)C1CC=C2C3=C(C(O)C(OC(C)=O)C21C)C1(C)CC(O)C(OC(C)=O)C(C)(C)C1CC3)C(C)C` (stereo not drawn) [Compound 3, integracide F], the IC50 came out at 2760 nM.
